Values of other authors in US12594237B2, “Mucoadhesive gel composition” (Viramal Limited, priority 2018, dated 2026).

Conditions: orally administered

- half-life in serum: about 5 minutes
SMILES: CC(=O)[C@H]1CC[C@H]2[C@@H]3CCC4=CC(=O)CC[C@]4(C)[C@H]3CC[C@]12C [progesterone]
